ChEMBL document CHEMBL5260858, “Targeting mycobacterial membranes and membrane proteins: Progress and limitations” (Bioorg Med Chem, 2023)
Converted amounts (≈) assume the structure as drawn.

Experiments:
[1] = system: Mycolicibacterium smegmatis; assay: Antitubercular activity against Mycobacterium smegmatis ATCC 607 assessed as zone of inhibition incubated 30 hrs by Kirby-Bauer disc diffusion assay; assay type: functional
[2] = system: Mycobacterium tuberculosis; assay: In vivo antimycobacterial activity against Mycobacterium tuberculosis H37Rv infected in C57BL/6 mouse assessed as reduction in bacterial load in spleen at 30 mg/kg, po and measured after 10 days by CFU analysis; assay type: functional; settings: time 10 day
[3] = system: Mycobacterium tuberculosis; assay: In vivo antimycobacterial activity against Mycobacterium tuberculosis H37Rv infected in C57BL/6 mouse assessed as reduction in bacterial load in spleen at 10 mg/kg, po and measured after 10 days by CFU analysis; assay type: functional; settings: time 10 day
[4] = system: Mycobacterium tuberculosis; assay: In vivo antimycobacterial activity against Mycobacterium tuberculosis H37Rv infected in C57BL/6 mouse assessed as reduction in bacterial load in lung at 30 mg/kg, po and measured after 10 days by CFU analysis; assay type: functional; settings: time 10 day
[5] = system: Mycobacterium tuberculosis; assay: In vivo antimycobacterial activity against Mycobacterium tuberculosis H37Rv infected in C57BL/6 mouse assessed as reduction in bacterial load in lung at 10 mg/kg, po and measured after 10 days by CFU analysis; assay type: functional; settings: time 10 day
[6] = system: Mycobacterium tuberculosis; assay: Antitubercular activity against Mycobacterium tuberculosis H37Rv assessed as bacterial growth inhibition incubated for 14 days by agar plate method; assay type: functional; settings: 336 h, time 14 day
Mycobacterium marinum = assay: Antitubercular activity against Mycobacterium marinum strain M assessed as bacterial growth inhibition incubated for 14 days by agar plate method; assay type: functional; settings: 336 h, time 14 day
[7] = system: Mycobacterium tuberculosis; assay: Antitubercular activity against Mycobacterium tuberculosis Erdman assessed as bacterial growth inhibition incubated for 14 days by agar plate method; assay type: functional; settings: 336 h, time 14 day
[8] = system: Mycobacterium tuberculosis; assay: Antitubercular activity against Mycobacterium tuberculosis Erdman assessed as bacterial growth inhibition; assay type: functional
[9] = system: Mycobacterium tuberculosis; assay: Antitubercular activity against Mycobacterium tuberculosis H37Rv assessed as bacterial growth inhibition; assay type: functional
[10] = system: Mycobacterium tuberculosis; assay: In vivo antimycobacterial activity against Mycobacterium tuberculosis H37Rv infected in BALB/c mouse assessed as reduction in bacterial load at 200 mg/kg, po for 2 weeks; assay type: functional
[11] = system: Mycobacterium tuberculosis; assay: In vivo antimycobacterial activity against Mycobacterium tuberculosis H37Rv infected in BALB/c mouse assessed as reduction in bacterial load at 300 mg/kg, po for 5 days; assay type: functional; settings: time 5 day
[12] = system: Mycobacterium tuberculosis; assay: Antitubercular activity against Mycobacterium tuberculosis H37Rv assessed as bacterial growth inhibition incubated for 6 days by MABA analysis; assay type: functional; settings: 144 h, time 6 day
[13] = system: Mycobacterium tuberculosis; assay: Antitubercular activity against Mycobacterium tuberculosis H37Rv expressing the luxABCDE operon assessed as bacterial growth inhibition incubated for 5 days in low oxygen condition by LORA Assay; assay type: functional; settings: 120 h, time 5 day
[14] = system: Mycobacterium tuberculosis; assay: Antitubercular activity against Mycobacterium tuberculosis H37Rv expressing the luxABCDE operon infected in human THP-1 cells assessed as reduction in intracellular bacterial load incubated for 72 hrs by luminescence analysis; assay type: functional, organism-based; settings: THP-1, 72 h
[15] = system: Mycobacterium tuberculosis; assay: Antitubercular activity against Mycobacterium tuberculosis H37Rv expressing the luxABCDE operon assessed as bacterial growth inhibition incubated for 28 hrs in aerobic condition by luminescence analysis; assay type: functional
[16] = system: Mycobacterium tuberculosis; assay: Antitubercular activity against Mycobacterium tuberculosis H37Rv assessed as bacterial growth inhibition incubated for 7 days by Alamar blue based fluorescence assay; assay type: functional; settings: 168 h, time 7 day
[17] = system: Mycobacterium tuberculosis; assay: Antitubercular activity against Mycobacterium tuberculosis H37Rv assessed as bacterial growth inhibition incubated for 6 days by resazurin reduction microplate assay; assay type: functional; settings: 144 h, time 6 day
[18] = system: Mycobacterium tuberculosis; assay: Antitubercular activity against Mycobacterium tuberculosis H37Rv infected in human HepG2 cells assessed as bacterial growth inhibition incubated for 4 weeks by resazurin reduction microtiter assay; assay type: functional, organism-based; settings: HepG2, 672 h
[19] = system: Mycobacterium tuberculosis; assay: Antitubercular activity against Mycobacterium tuberculosis H37Rv infected in BALB/c mouse assessed as reduction in bacterial load at 200 mg/kg, po for 10 days by CFU analysis; assay type: functional; settings: time 10 day
[20] = system: Mycobacterium tuberculosis; assay: In vivo antimycobacterial activity against Mycobacterium tuberculosis H37Rv infected in BALB/c mouse assessed as reduction in bacterial load in lung at 100 mg/kg, po and measured after 3 weeks; assay type: functional
[21] = system: Mycolicibacterium smegmatis; assay: Antitubercular activity against Mycobacterium smegmatis assessed as bacterial growth inhibition; assay type: functional
[22] = system: Mycobacterium tuberculosis; assay: In vivo antimycobacterial activity against Mycobacterium tuberculosis H37Rv infected in BALB/c mouse assessed as reduction in bacterial load in lung at 50 mg/kg, po and measured after 3 weeks; assay type: functional
[23] = system: Mycobacterium tuberculosis; assay: In vivo antimycobacterial activity against Mycobacterium tuberculosis H37Rv infected in BALB/c mouse assessed as reduction in bacterial load in lung at 200 mg/kg, po and measured after 4 weeks; assay type: functional
Mycobacterium avium = assay: Antitubercular activity against Mycobacterium avium assessed as bacterial growth inhibition; assay type: functional
[24] = system: Mycobacterium tuberculosis; assay: Antitubercular activity against Mycobacterium tuberculosis H37Rv infected in BALB/c mouse assessed as reduction in bacterial load at 150 mg/kg, po for 10 days by CFU analysis; assay type: functional; settings: time 10 day
[25] = system: Mycobacterium tuberculosis; assay: Antitubercular activity against Mycobacterium tuberculosis H37Rv assessed as bacterial growth inhibition incubated for 7 days by resazurin reduction microplate assay; assay type: functional; settings: 168 h, time 7 day
[26] = system: Mycobacterium tuberculosis; assay: Antitubercular activity against Mycobacterium tuberculosis Erdman assessed as bacterial growth inhibition incubated for 1 week by microplate alamar blue assay; assay type: functional, organism-based; settings: 168 h

In the case of `C=CCN1C(=O)NC(=O)/C(=C/NNC(=O)c2ccncc2)C1=O`, the “inhibition zone (IZ)” value [1] is reported as 20 mm, the Activity [2] is reported as 1.3 log10CFU and the Activity [3] is reported as 0.6 log10CFU. The Activity [4] was 2.1 log10CFU and the Activity [5] was 1 log10CFU.

`Cc1cc2oc(=O)cc(-c3cccc(N)c3)c2c(C)c1-c1ccc(CN2CCOCC2)cc1` was tested, and the MIC [6] was 0.24 µM (≈ 0.106 µg/mL), the MIC (Mycobacterium marinum) was 0.83 µM (≈ 0.366 µg/mL) and the MIC [7] was 0.4 µM (≈ 0.176 µg/mL).

With `Cc1c(OCC(F)(F)F)ccnc1CSc1nc2ccccc2[nH]1` [LANSOPRAZOLE SULFIDE] the MIC90 [8] was 1.21 µM (≈ 0.428 µg/mL) and the MIC90 [9] was 1.13 µM (≈ 0.399 µg/mL).

In the case of `CNC(=O)c1c(-c2ccc(O)cc2)oc2ccc(O)c(CN3CCCCC3)c12`, the Activity [10] is reported as 6.8 log10CFU and the Activity [11] is reported as 7 log10CFU.

In the case of `CCOC(=O)c1c(NC(=O)c2c(F)c(F)c(F)c(F)c2F)sc2c1CCN(CC)C2`, the MIC [12] is reported as 0.69 µM (≈ 0.309 µg/mL), the MIC [13] is reported as over 200 µM and the IC50 [14] is reported as 5.6 µM. The MIC [15] was 0.23 µM (≈ 0.103 µg/mL).

Work on `COc1ncccc1Nc1cc2nc3ccccc3n(-c3ccc(OC(F)(F)F)cc3)c-2c/c1=N\C1CCC(OC)CC1` (centres undefined) yielded an MIC [16] of 0.016 µg/mL (≈ 0.0271 µM).

In the case of `O=C(/C=C/c1cccs1)N1CCN(Cc2ccc3c(c2)OCO3)CC1`, the MIC [17] is reported as 0.05 µg/mL (≈ 0.14 µM), the IC50 [18] is reported as 0.1 µg/mL (≈ 0.281 µM) and the Activity [19] is reported as 0.4 log10CFU.

For `CCOC(=O)NC(=O)c1ccsc1NC(=O)c1nc2ccncc2s1`, the Activity [20] was 2.3 log10CFU, the MIC [21] was 0.089 µM (≈ 0.0335 µg/mL) and the Activity [22] was 1.7 log10CFU. The Activity [23] was over 1.7 log10CFU.

`COc1nc2ccc(Br)cc2cc1[C@@H](c1ccccc1)[C@@](O)(CCN(C)C)c1cccc2ccccc12` [BEDAQUILINE] gave an MIC (Mycobacterium avium) of 0.01 µg/mL (≈ 0.018 µM) and an MIC [9] of 0.03 µg/mL (≈ 0.054 µM).

`CCSc1nc(NC)c2ccc(F)c(F)c2n1` was tested, and the Activity [24] was 0.5 log10CFU and the MIC [25] was 0.02 µg/mL (≈ 0.0783 µM).

Compound `CCCCNc1nc(CC)nc2sc(C)cc12` has an IC50 [26] of 2.7 µM.
